≈ marks a conversion by molar mass, not a printed value.
Tests used:
EphA2 L223R/L254R/V255R = biological target: T1, EphA2 L223R/L254R/V255R (Homo sapiens, UniProt P29317, L223R/L254R/V255R); assay: Quantitative FRET of EphA2 oligomerization in HEK293 cells; type: cell-based; details: 50 μM peptide
T1 construct: expressed in transfected cells; host or cells: HEK293 (transient transfection)
Description: (§1) (FIG. 5F) Two-dimensional dissociation constant values (Kdiss) and dimerization free energy values (ΔG=−RT×In (10^6/Kdiss) calculated from the curves shown in the other panels. Shown are the best fit values and the […] confidence intervals (standard errors). Kdiss values for all curves were compared to each other using one-way ANOVA followed by Tukey's multiple comparison test; *, P<0.05; **, P<0.01; ***, P<0.001; * P<0.0001; ns, not significant.
(§2) Thus, the peptide enhanced the weak EphA2 dimerization observed in the absence of a bound ligand, which also occurred through the clustering interface. In contrast, the monomeric soluble form of ephrin-Al induced the formation of EphA2 dimers that assembled through another extracellular interface known as the “heterodimerization” or “dimerization” interface.

EphA2 G131Y = biological target: T2, EphA2 G131Y (Homo sapiens, UniProt P29317, G131Y); assay: as above; type: cell-based; details: 50 μM peptide
T2 construct: expressed in transfected cells; host or cells: HEK293 (transient transfection)
T2 sequence (P29317 24-976 G131Y): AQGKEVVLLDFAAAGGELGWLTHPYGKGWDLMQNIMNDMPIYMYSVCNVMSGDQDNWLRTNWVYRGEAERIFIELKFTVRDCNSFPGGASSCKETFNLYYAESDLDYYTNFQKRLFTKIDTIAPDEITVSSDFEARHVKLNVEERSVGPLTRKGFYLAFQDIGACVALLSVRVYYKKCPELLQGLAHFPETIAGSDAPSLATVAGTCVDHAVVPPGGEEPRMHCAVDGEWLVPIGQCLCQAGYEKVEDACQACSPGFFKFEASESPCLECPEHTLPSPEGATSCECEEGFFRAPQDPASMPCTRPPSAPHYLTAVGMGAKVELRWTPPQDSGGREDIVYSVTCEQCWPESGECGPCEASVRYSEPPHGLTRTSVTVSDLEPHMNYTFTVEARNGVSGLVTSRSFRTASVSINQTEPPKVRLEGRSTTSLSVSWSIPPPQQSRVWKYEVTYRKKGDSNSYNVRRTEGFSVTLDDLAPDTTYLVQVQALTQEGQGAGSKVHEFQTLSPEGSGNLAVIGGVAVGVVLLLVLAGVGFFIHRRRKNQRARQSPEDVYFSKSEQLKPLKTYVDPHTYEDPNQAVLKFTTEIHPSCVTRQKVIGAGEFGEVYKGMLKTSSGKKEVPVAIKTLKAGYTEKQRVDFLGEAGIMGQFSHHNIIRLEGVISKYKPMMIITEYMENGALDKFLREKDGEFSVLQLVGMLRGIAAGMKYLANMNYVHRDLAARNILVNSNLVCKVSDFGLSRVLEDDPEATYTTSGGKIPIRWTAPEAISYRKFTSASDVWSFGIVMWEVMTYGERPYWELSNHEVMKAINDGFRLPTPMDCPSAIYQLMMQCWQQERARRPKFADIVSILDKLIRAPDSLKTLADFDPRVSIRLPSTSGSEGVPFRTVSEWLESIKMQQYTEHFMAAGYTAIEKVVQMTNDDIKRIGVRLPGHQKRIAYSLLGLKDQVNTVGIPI
Description: as §1, §2

EphA2 WT = biological target: T3, EphA2 WT (Homo sapiens, UniProt P29317); assay: as above; type: cell-based; details: transiently transfected HEK293 cells; 50 μM for YSA-GSGSK-bio
T3 construct: expressed in transfected cells; host or cells: HEK293 (transient transfection)
T3 sequence (P29317 24-976): as the sequence (P29317 24-976 G131Y) above, with Y108G counted along it

[1] = Peptide solubility in PBS/H2O
EphA2 [2] = biological target: T4, EphA2 (Homo sapiens, UniProt P29317); assay: Inhibition of ephrin-A1 Fc-induced EphA2 Y588 phosphorylation in PC3 cells; type: cell-based; set-up: endogenous EphA2 expressed in PC3 prostate cancer cells; endogenous in cells; host or cells: PC3 prostate cancer cells; details: 20 min peptide then 0.1 μg/ml ephrin-A1 Fc
Experimental: PC3 cells were treated for 20 min with different concentrations of the indicated peptides and then activated with 0.1 μg/ml ephrin-Al Fc. The immunoblots show EphA2 autophosphorylation on tyrosine 588 (pY588, indicative of receptor activation), total EphA2 levels, and AKT phosphorylation on S473 (indicative of AKT activation). pY588 values were normalized to the value obtained in the same blot with ephrin-Al Fc treatment in the absence of peptide. pAKT values were normalized to the value obtained in the same blot without ephrin-A1 Fc or peptide treatment. Calculated EC50 and IC50 values are shown. The graphs show quantification of pY588 and pAKT from 7 blots for each peptide (averages±SE), normalized to total EphA2 levels.
Target sequence in this assay (P29317 24-976): as the sequence (P29317 24-976 G131Y) above, with Y108G counted along it

AKT = AKT S473 phosphorylation in PC3 cells (immunoblot); type: cell-based; details: peptide then 0.1 μg/ml ephrin-A1 Fc
Experimental: PC3 cells were treated for 15 min with different concentrations of the indicated peptides. […] The graphs show quantification of pY588 and pAKT from multiple blots (averages±SE), normalized to total EphA2 levels. The number of experiments analyzed is: 5 in FIG. 4A, 3 in FIG. 4B, 7 in FIG. 4C, 7 in FIG. 4D, 5 in FIG. 4E, 3 in FIG. 4F, 3 in FIG. 4G and 2 in FIG. 4H.

EphA2 LBD = biological target: T5, EphA2 LBD (Homo sapiens, UniProt P29317); assay: Isothermal titration calorimetry (ITC) of peptide binding; details: EphA2 LBD, 23° C.; average ± SE (Table 1); read-out: KD (nM) by ITC
T5 construct: EphA2 LBD (residues 28-200); made in house; host or cells: E. coli Origami 2 (DE3)
T5 sequence (P29317 28-200): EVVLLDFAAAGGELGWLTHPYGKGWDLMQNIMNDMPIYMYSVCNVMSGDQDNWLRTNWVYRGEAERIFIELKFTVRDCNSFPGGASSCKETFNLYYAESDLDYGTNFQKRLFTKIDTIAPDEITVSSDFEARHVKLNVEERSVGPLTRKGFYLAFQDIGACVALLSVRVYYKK
Experimental: For ITC, all peptides were dissolved in DMSO and both the EphA2 LBD and the peptides were diluted to obtain a final buffer containing 9.5 mM HEPES, pH 7.9, 95 mM NaCl, and 5% DMSO. […] Two-microliter aliquots of a peptide solution were injected into the cell containing 205 μL EphA2 LBD. 200-400 μM peptides were titrated into 20-40 μM EphA2 LBD. Experimental data were analyzed using the Origin software package (Microcal). The integrated values for the reaction heats were normalized to the amount of injected peptide after blank subtraction.

EphA2 [3] = biological target: T4, EphA2; assay: ELISA: inhibition of ephrin-A5 AP binding to immobilized EphA2 Fc; set-up: the immobilized EphA2 extracellular domain fused to the Fc portion of an antibody (EphA2 Fc); details: average ± SE
Experimental: (FIG. 2A) Representative ELISAs comparing the ability of the peptides to inhibit binding of ephrin-A5 fused to alkaline phosphatase (ephrin-A5 AP) to the immobilized EphA2 extracellular domain fused to the Fc portion of an antibody (EphA2 Fc). The graphs show averages±SE from triplicate measurements from a representative experiment. IC50 values calculated from the fitted curves in each experiment are shown. All concentrations are nM and the 100 nM peptide concentration is outlined in red. (FIG. 2B) Ephrin-A5 AP binding to the indicated EphA receptors and ephrin-B2 AP binding to the indicated EphB receptors in the presence of the indicated peptide, normalized to ephrin binding without peptide. The bars show averages±SE from triplicate measurements.
Target sequence in this assay (P29317 24-537 limits assumed, species assumed): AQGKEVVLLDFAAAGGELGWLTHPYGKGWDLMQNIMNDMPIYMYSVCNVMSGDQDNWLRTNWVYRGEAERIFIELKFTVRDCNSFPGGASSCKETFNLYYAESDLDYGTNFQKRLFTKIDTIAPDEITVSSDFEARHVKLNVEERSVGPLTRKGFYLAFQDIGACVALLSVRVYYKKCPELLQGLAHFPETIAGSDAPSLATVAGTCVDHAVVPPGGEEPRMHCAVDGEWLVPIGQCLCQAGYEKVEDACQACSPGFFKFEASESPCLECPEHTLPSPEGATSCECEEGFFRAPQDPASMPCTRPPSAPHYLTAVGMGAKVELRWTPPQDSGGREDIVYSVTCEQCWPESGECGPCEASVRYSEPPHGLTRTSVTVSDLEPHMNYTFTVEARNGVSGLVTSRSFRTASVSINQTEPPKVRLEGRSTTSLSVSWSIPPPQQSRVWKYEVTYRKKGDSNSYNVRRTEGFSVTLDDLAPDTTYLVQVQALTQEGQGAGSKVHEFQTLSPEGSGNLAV

[4] = PBS, Solubility in PBS (mg/ml), PBS (first figure of cell)
[5] = water, Solubility in H2O (mg/ml), H2O (second figure of cell)

T1 sequence (P29317 24-976 L223R/L254R/V255R): as the sequence (P29317 24-976 G131Y) above, with Y108G, L200R, L231R, V232R counted along it

Compound: CSCC[C@H](NC(=O)[C@H](CCSC)NC(=O)[C@@H]1CCCN1C(=O)[C@@H](NC(=O)[C@H](CO)NC(=O)[C@H](CC(=O)O)NC(=O)[C@@H]1CCCN1C(=O)[C@H](Cc1ccc(O)cc1)NC(=O)[C@H](C)NC(=O)[C@H](CO)NC(=O)[C@@H](N)Cc1ccc(O)cc1)C(C)C)C(=O)N[C@@H](CO)C(=O)NCC(=O)N[C@@H](CO)C(=O)NCC(=O)N[C@@H](CO)C(=O)N[C@@H](CCCCNC(=O)CCCC[C@@H]1SC[C@@H]2NC(=O)N[C@@H]21)C(=O)O [YSA-GSGSK-bio]
- EphA2 L223R/L254R/V255R oligomerization by FRET (EphA2 L223R/L254R/V255R): promoted substantial oligomerization
- EphA2 G131Y oligomerization by FRET (EphA2 G131Y): had no effect on/reduced oligomerization
- EphA2 WT oligomerization by FRET (EphA2 WT): substantially increased the oligomeric fraction
- solubility [1, 4]: 15 mg/mL (≈ 7.54 mM)
- solubility [1, 5]: 15 mg/mL (≈ 7.54 mM)

Compound: CC(C)C[C@H](NC(=O)[C@H](Cc1c[nH]c2ccccc12)NC(=O)CCN)C(=O)N[C@@H](C)C(=O)N[C@@H](Cc1ccc(O)cc1)C(=O)N1CCC[C@H]1C(=O)N[C@@H](CC(=O)O)C(=O)N[C@@H](CO)C(=O)N[C@H](C(=O)N1CCC[C@H]1C(=O)N[C@@H](Cc1ccc(O)cc1)C(=O)N[C@@H](CCCNC(=N)N)C(=O)N1CCC[C@H]1C(=O)N[C@@H](CCCCN)C(N)=O)C(C)C [βA-WLA-YRPKam]
- effect on EphA2 Y588 phosphorylation induced by ephrin-A1 Fc (EphA2 [2]): inhibited
- solubility [1, 4]: 10 mg/mL (≈ 6.02 mM)
- solubility [1, 5]: 10 mg/mL (≈ 6.02 mM)
- effect on AKT inhibition caused by EphA2 activation (AKT): prevented the inhibitory effects
- Kd (EphA2 LBD): 110 nM
- IC50 (EphA2 [3]): 19 ± 2 nM

Reference: US12398179B2, “Nanomolar peptides and derivatives to differentially modulate ephrin receptors” (Sanford Burnham Prebys Medical Discovery Institute, priority 2019, dated 2025)
